Our source for the IC50 values is publication PMC8100446, “Perillaldehyde Inhibition of cGAS Reduces dsDNA-Induced Interferon Response” (Frontiers in Immunology, 2021).

What is called IC50 is the point on the concentration scale where inhibition reaches its midpoint.

This assay deals with T1, cyclic GMP-AMP synthase (cGAS) (Homo sapiens, UniProt Q8N884).
T1 construct: purified recombinant full-length cGAS
Put plainly: in vitro cGAS enzymatic assay, cGAMP production measured by HPLC-MS. Format: biochemical.

T1 sequence (Q8N884 whole entry): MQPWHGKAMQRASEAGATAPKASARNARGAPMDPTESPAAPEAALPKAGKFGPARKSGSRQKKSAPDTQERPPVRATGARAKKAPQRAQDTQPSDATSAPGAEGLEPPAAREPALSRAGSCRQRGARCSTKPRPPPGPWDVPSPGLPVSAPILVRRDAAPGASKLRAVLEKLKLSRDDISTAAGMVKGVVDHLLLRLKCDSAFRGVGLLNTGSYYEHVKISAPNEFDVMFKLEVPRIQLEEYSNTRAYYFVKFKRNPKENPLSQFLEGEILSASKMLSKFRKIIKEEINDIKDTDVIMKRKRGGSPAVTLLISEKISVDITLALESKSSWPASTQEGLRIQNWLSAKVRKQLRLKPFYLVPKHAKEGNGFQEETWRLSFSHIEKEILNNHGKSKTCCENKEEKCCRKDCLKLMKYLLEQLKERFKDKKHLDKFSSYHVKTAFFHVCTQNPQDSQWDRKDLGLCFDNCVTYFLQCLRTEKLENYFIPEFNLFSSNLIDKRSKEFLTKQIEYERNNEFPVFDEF

In turn, `C=C(C)C1CC=C(C=O)CC1` (stereo not shown) [PAH, perillaldehyde] returned an IC50 of 31.3 µM.
